Experimental data: patent publication US4243408A, “Herbicidal N-triazolylmethyl-substituted alpha-haloacetanilide” (Chevron Research Company, priority 1978, dated 1981)

Tests used:
Format in all cases: in vivo
[1] = test system: Lambsquarter (Chenopodium album); test: Pre-Emergent Test, herbicidal effectiveness; conditions: pre-emergence, 504 h, 33 micrograms per cm^2, 3 weeks, 0-to-100 scale, read-out: Herbicidal Effectiveness, % Control Pre, L
Procedure: (§1) An acetone solution of the test compound was prepared by mixing 750 mg of the compound, 220 mg of a nonionic surfactant and 25 ml of acetone. This solution was added to approximately 125 ml of water containing 156 mg of surfactant.
(§2) Seeds of the test vegetation were planted in a pot of soil and the test solution was sprayed uniformly onto the soil surface at a dose of 33 micrograms/cm^2. The pot was watered and placed in a greenhouse. […] At the end of this period, the herbicidal effectiveness of the compound was rated based on the physiological observations. A 0-to-100 scale was used, 0 representing no phytotoxicity, 100 representing complete kill.

[2] = test system: Mustard (Brassica arvensis); test: Pre-Emergent Test, herbicidal effectiveness; conditions: pre-emergence, 504 h, 33 micrograms per cm^2, 3 weeks, 0-to-100 scale
Procedure: as §1, §2

[3] = test system: Crabgrass (Digitaria sanguinalis); test: Pre-Emergent Test, herbicidal effectiveness; conditions: pre-emergence, 504 h, 33 micrograms per cm^2, 3 weeks, 0-to-100 scale, read-out: Herbicidal Effectiveness, % Control Pre, C
Procedure: as §1, §2

Watergrass (Echinochloa) [4] = test: Pre-Emergent Test, herbicidal effectiveness; conditions: pre-emergence, 504 h, 33 micrograms per cm^2, 3 weeks, 0-to-100 scale, read-out: Herbicidal Effectiveness, % Control Pre, W
Procedure: as §1, §2

[5] = test system: Pigweed (Amaranthus retroflexus); test: Pre-Emergent Test, herbicidal effectiveness; conditions: pre-emergence, 504 h, 33 micrograms per cm^2, 3 weeks, 0-to-100 scale, read-out: Herbicidal Effectiveness, % Control Pre, P
Procedure: as §1, §2

Wild Oats (Avena fatua) [6] = test: Pre-Emergent Test, herbicidal effectiveness; conditions: pre-emergence, 504 h, 33 micrograms per cm^2, 3 weeks, 0-to-100 scale, read-out: Herbicidal Effectiveness, % Control Pre, O
Procedure: as §1, §2

[7] = test system: Lambsquarter (Chenopodium album); test: Post-Emergent Test, herbicidal effectiveness; conditions: post-emergence, 504 h, 33 micrograms per cm^2, 3 weeks, 0-to-100 scale, read-out: Herbicidal Effectiveness, % Control Post, L
[8] = test system: Mustard (Brassica arvensis); test: Post-Emergent Test, herbicidal effectiveness; conditions: post-emergence, 504 h, 33 micrograms per cm^2, 3 weeks, 0-to-100 scale
[9] = test system: Crabgrass (Digitaria sanguinalis); test: Post-Emergent Test, herbicidal effectiveness; conditions: post-emergence, 504 h, 33 micrograms per cm^2, 3 weeks, 0-to-100 scale, read-out: Herbicidal Effectiveness, % Control Post, C
Watergrass (Echinochloa) [10] = test: Post-Emergent Test, herbicidal effectiveness; conditions: post-emergence, 504 h, 33 micrograms per cm^2, 3 weeks, 0-to-100 scale, read-out: Herbicidal Effectiveness, % Control Post, W
[11] = test system: Pigweed (Amaranthus retroflexus); test: Post-Emergent Test, herbicidal effectiveness; conditions: post-emergence, 504 h, 33 micrograms per cm^2, 3 weeks, 0-to-100 scale, read-out: Herbicidal Effectiveness, % Control Post, P
Wild Oats (Avena fatua) [12] = test: Post-Emergent Test, herbicidal effectiveness; conditions: post-emergence, 504 h, 33 micrograms per cm^2, 3 weeks, 0-to-100 scale, read-out: Herbicidal Effectiveness, % Control Post, O

Compound | pest or weed control at 33 µg/cm2 [1] | pest or weed control at 33 µg/cm2 [2] | pest or weed control at 33 µg/cm2 [3] | pest or weed control at 33 µg/cm2 (Watergrass (Echinochloa) [4]) | pest or weed control at 33 µg/cm2 [5] | pest or weed control at 33 µg/cm2 (Wild Oats (Avena fatua) [6]) | pest or weed control at 5000 µg/mL, 33 µg/cm2 [7] | pest or weed control at 5000 µg/mL, 33 µg/cm2 [8] | pest or weed control at 5000 µg/mL, 33 µg/cm2 [9] | pest or weed control at 5000 µg/mL, 33 µg/cm2 (Watergrass (Echinochloa) [10]) | pest or weed control at 5000 µg/mL, 33 µg/cm2 [11] | pest or weed control at 5000 µg/mL, 33 µg/cm2 (Wild Oats (Avena fatua) [12])
CCc1cccc(CC)c1NCc1nnc[nH]1 [Compound 20A] | 0% | 0% | 0% | 0% | 0% | 0% | 0% | 0% | 0% | 0% | 0% | 0%
CSc1nnc(CNc2c(C)cccc2C)o1 [Compound 24A, 2-(2,6-dimethylphenylaminomethyl)-5-methylthio-1,3,4-oxadiazole] | 0% | 0% | 0% | 0% | 0% | 0% | 0% | 0% | 0% | 0% | 0% | 0%
Cc1nnc(CN(C(=O)CCl)c2ccc(Cl)c(Cl)c2)[nH]1 [Compound 27B] | 0% | 0% | 0% | 0% | 0% | 0% | 0% | 0% | 0% | 0% | 0% | 0%
Cc1nnc(C(C)N(C(=O)CCl)c2c(C)cccc2C)[nH]1 (stereo not drawn) [Compound 11B] | 100% | 80% | 100% | 100% | 90% | 97% | 25% | 20% | 55% | 73% | 20% | 10%
CCc1cccc(C)c1NCc1nnc(S)n1C [Compound 19] | 0% | 0% | 0% | 0% | 0% | 0% | 0% | 0% | 0% | 0% | 0% | 0%
Cc1cccc(C)c1N(Cc1nnc(S)[nH]1)C(=O)CCl [Compound 18B] | 0% | 0% | 0% | 0% | 0% | 0% | 0% | 0% | 0% | 0% | 0% | 0%
Cc1nnc(CN(C(=O)CCl)c2cccc(C(F)(F)F)c2)[nH]1 [Compound 26B] | 10% | 10% | 0% | 65% | 0% | 0% | 0% | 0% | 0% | 0% | 0% | 0%
CCc1cccc(C)c1NCc1nnc[nH]1 [Compound 17A] | 0% | 0% | 0% | 0% | 0% | 0% | 0% | 0% | 0% | 0% | 0% | 0%
Cc1cccc(C)c1N(CCc1nnc[nH]1)C(=O)CCl [Compound 13] | 75% | 20% | 85% | 97% | 40% | 25% | 0% | 0% | 60% | 63% | 0% | 20%
Cc1cccc(C)c1NCc1nnc[nH]1 [Compound 9A] | 0% | 0% | 0% | 0% | 0% | 0% | 0% | 0% | 0% | 0% | 0% | 0%
Cc1nnc(CNc2ccc(Cl)c(Cl)c2)[nH]1 [Compound 27A] | 0% | 0% | 0% | 0% | 0% | 0% | 0% | 0% | 0% | 0% | 0% | 0%
Cc1cccc(C)c1NCc1nnc(S)[nH]1 [Compound 18A] | 0% | 0% | 0% | 0% | 0% | 0% | 0% | 0% | 0% | 0% | 0% | 0%
CCc1cccc(C)c1NCc1nnc(SC)n1C [Compound 21A] | 0% | 0% | 0% | 0% | 0% | 0% | 0% | 0% | 0% | 0% | 0% | 0%
